Results published in patent US11541050B2, “Pyrimidine derivatives for the treatment of viral infections” (JANSSEN SCIENCES IRELAND UC, priority 2011, dated 2023).

Tests used:
[1] = target: T1, human TLR7 (wild type sequence) (Homo sapiens, UniProt Q9NYK1); experiment: TLR7 cellular NFκB-luc reporter assay, wild type TLR7; assay type: cell-based; design: unit not given here; conditions: lowest effective concentration, wild type TLR7 (compounds 1-73)
T1 construct: expressed in transfected cells; host or cells: HEK293
T1 sequence (Q9NYK1 27-1049): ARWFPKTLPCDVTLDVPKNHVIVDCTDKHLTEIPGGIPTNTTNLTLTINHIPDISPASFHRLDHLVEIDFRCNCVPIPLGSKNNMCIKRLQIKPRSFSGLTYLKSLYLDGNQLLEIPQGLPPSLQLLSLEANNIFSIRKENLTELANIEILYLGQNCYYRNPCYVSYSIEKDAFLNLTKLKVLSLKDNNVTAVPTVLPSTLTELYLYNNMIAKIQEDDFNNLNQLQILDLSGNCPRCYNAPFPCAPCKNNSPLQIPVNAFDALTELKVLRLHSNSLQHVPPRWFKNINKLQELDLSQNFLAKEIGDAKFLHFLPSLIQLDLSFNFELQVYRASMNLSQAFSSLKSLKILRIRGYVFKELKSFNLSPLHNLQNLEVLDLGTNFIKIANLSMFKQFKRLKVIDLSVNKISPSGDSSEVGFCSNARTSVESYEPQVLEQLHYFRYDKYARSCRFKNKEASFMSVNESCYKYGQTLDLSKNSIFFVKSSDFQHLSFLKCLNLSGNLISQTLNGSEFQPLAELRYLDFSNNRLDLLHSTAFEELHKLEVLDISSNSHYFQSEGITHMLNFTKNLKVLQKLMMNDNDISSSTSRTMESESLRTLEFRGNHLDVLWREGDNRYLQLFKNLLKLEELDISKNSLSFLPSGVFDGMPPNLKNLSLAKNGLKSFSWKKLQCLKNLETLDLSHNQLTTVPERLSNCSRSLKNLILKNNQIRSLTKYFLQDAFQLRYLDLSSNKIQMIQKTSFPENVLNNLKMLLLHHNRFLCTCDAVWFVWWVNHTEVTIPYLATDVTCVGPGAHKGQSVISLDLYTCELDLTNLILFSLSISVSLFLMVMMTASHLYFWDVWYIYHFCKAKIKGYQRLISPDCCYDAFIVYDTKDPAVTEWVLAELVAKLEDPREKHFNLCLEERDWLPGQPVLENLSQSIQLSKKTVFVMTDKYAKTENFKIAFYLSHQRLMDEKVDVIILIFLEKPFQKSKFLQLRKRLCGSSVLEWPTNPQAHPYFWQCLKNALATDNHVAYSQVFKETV
Method in brief: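 HEK293 cells transiently co-transfected (48 h, 37 °C) with CMV-TLR7 or TLR8 plasmid (wild type or second-LRR deletion mutant) plus NFκB-luc reporter. Cells exposed to compound for 6 h at 37 °C, 5% CO2; luciferase read-out. LEC from quadruplicate dose-response curves: concentration giving effect at least two fold above assay standard deviation.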

[2] = tested on: HCV replicon in Huh-7 luc/neo cells; experiment: Suppression of HCV replicon replication by conditioned media from compound-treated PBMC; assay type: cell-based, HCV type 1 b; conditions: Hepatitis C virus, Huh-7; read-out: PBMC-HUH7_EC50
Method in brief: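 Human PBMC (≥2 donors, RPMI + 10% human AB serum, 2×10^5 cells/well) incubated overnight with compounds; supernatant transferred onto Huh-7 luc/neo HCV 1b replicon cells. After 24 h, replication read as luciferase activity. Recombinant interferon α-2a served as standard.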

Row | SMILES | TLR7-wt_LEC [1] | EC50 [2]
1 | CCCCNc1nc(N)ncc1OC [Compound 4] | 6.71 | 1.14 µM
2 | CCCCNc1nc(N)ncc1OCC(C)C [Compound 31] | >24.59 | 10.4 µM
3 | CCCCCOc1cnc(N)nc1NCCCC [Compound 32] | 10.60 | 1.06 µM
4 | CCCCCNc1nc(N)ncc1Oc1ccccc1OC [Compound 38] | 21.97 | 11.3 µM
5 | CCCCCNc1nc(N)ncc1OC [Compound 56] | 12.02 | 0.8 µM
6 | CCCCNc1nc(N)ncc1OCc1ccc(-c2ccccc2)cc1 [Compound 58] | 6.48 | 2.99 µM
7 | CCCCNc1nc(N)ncc1OCC [Compound 60] | 5.58 | 1.91 µM
8 | CCCCCNc1nc(N)ncc1OCC [Compound 63] | 2.78 | 2.69 µM
9 | CCCCNc1nc(N)ncc1Oc1ccccc1OC [Compound 64] | 8.47 | 4.29 µM
10 | CCCCCCNc1nc(N)ncc1OCC [Compound 70] | 15.84 | > 23.8 µM
